In patent publication US20230255943A1, “MMP-9 AND MMP-12 INHIBITION FOR TREATING SPINAL CORD INJURY OR RELATED INJURY TO NEUROLOGICAL TISSUE” (The University of Birmingham, priority 2020, published 2023):
Several values for one entry are separate records, joined by “and”; a condition that tells them apart may be missing. Identical values can stand only once. Counter-ions that a name gives are not always drawn.

Tests used:
[1] = system: mice with DC crush injury; assay type: in vivo, mouse; details: for number of CTB+ DC axons regenerating, comparison with other MMP inhibitors (FIG. 11): mouse, in vivo
[2] = system: LPS-stimulated primary microglia; test: LPS-induced cytokine production by primary microglia (ELISA); assay type: cell-based, mouse; details: LPS 10 ng/ml, 24 h
Procedure: Primary mouse microglia from 6-8-week-old C57BL/6 mouse brains were prepared according to a previously described protocol (Moussaud S, Draheim H J. A new method to isolate microglia from adult mice and culture them for an extended period of time. J Neurosci Methods 2010; 187(2): 243-53). Briefly, the meninges of brains were dissected out, finely minced enzymatically digested using 20 units/ml Papain (all from Sigma). After incubation for 90 min at 37° C., the suspension was centrifuged at 200 g for 7 min and the pellet resuspended in 0.5 mg/ml DNase I (Roche, Manheim, Germany) and triturated with fire-polished Pasteur pipettes of decreasing diameters. The homogenate was then filtered through a 70 μm cell strainer (Beckton Dickinson, Watford, UK), and centrifuged through a Percoll (GE Healthcare, Amersham, UK) gradient. Finally, the cell suspension was resuspended in DMEM/F12 medium supplemented with 10% FBS (all from Invitrogen) and 5 ng/ml of granulocyte colony and macrophage stimulating factor (GM-CSF) (#415-ML, R&D Systems. Watford, UK), plated out in T75 cell culture flasks (Beckton Dickinson) precoated with poly-L-lysine, and maintained at 37° C. and 5% CO2 for approximately 2 weeks. When the cells become confluent, microglia detach and migrate to the medium-air interface, floating and proliferating. The supernatant of the flask was then collected without prior shaking to remove the microglia growing on a mixed glial culture base and centrifuged at 200 g for 7 min. The purity of microglia was determined from each flask by immunocytochemistry for CD11b and confirmed as 95% pure. Before each experiment, microglia were cultured in DMEM/F12 without GM-CSF for at least 3 d.
Microglia were used for all experiments with an in vitro age between 15-20 d in vitro (DIV) and were seeded on glass coverslips in 24-well plates at a density of 3×10^4 cells/well. Microglia were exposed to serum-free media for 24 h before exposing the cells to different concentrations of lipopolyscaccharide (LPS) in preliminary experiments to determine optimal concentrations required to maximally activate our primary microglial cultures. This was determined as 10 ng/ml. For the microglial activation assay, cells were exposed to serum-free medium for 24 h before being exposed to LPS, with or without different concentrations of AZD1236, GM6001, SD2590 and MMP-9 Inhibitor I (all used at 10-500 ng/ml) for a further 24 h. Cell culture supernatant was then collected, centrifuged to remove cell debris and subjected to ELISA to determine the concentrations of TNF-α, IL-1β and IL-6. Experiments were performed in triplicate wells and repeated on 3 independent occasions (n=9 wells/treatment).
TNF-α (#MTA00B), IL-1β (#MLBOOC) and IL-6 (#M6000B) were determined using commercially available kits from R&D Systems, following the manufacturer's instructions.

rat MMP-9 = rat MMP-9 (Rattus norvegicus, UniProt P50282); test: Inhibition of rat MMP-9; assay type: biochemical
rat MMP-12 = rat MMP-12 (Rattus norvegicus, UniProt Q63341); test: Inhibition of rat MMP-12; assay type: biochemical
human MMP-12 = human MMP-12 (Homo sapiens, UniProt P39900); test: Inhibition of human MMP-12 (IC50); assay type: biochemical
human MMP-9 = human MMP-9 (Homo sapiens, UniProt P14780); test: Inhibition of human MMP-9 (IC50); assay type: biochemical
DC injury = test: Example 2: spinal cord water content as measure of injury-induced oedema; details: in vivo
Procedure: (§1) The lesion site+3 mm either side for mice and the lesion site+5 mm either side for the rat DC model were dissected out and the water content of the spinal cord (as a measure of oedema) was determined at 3 days after DC and CC SCI, as described previously (S. Li, C. H. Tator, Effects of MK801 on evoked potentials, spinal cord blood flow and cord edema in acute spinal cord injury in rats. Spinal Cord 37, 820-832 (1999)). Spinal cords containing the lesion site were weighed on aluminium foil, dried at 105° C. for 24 hr, and re-weighed. The percent water content was calculated as: water content (%)=[(wet weight-dry weight)/wet weight]×100%.
Using similar techniques to those described in Example 1, the water content in the spinal cord as a measure of injury-induced oedema was determined for both AZD1236 & AZD3342 (see FIG. 20).

[3] = system: rats with DC crush injury; test: Spinal cord water content after DC injury in rats; assay type: in vivo; details: rat DC injury, oral, 3 days
Procedure: DC crush injury was administered bilaterally at the T8 vertebral level as described previously (S. Surey, M. Berry, A. Logan, R. Bicknell, Z. Ahmed, Differential cavitation, angiogenesis and wound-healing responses in injured mouse and rat spinal cords. Neuroscience 275, 62-80 (2014); M. L. Read, S. Mir, R. Spice, R. J. Seabright, E. L. Suggate, Z. Ahmed, M. Berry, A. Logan, Profiling RNA interference (RNAi)-mediated toxicity in neural cultures for effective short interfering RNA design. J Gene Med 11, 523-534 (2009)). […]
The efficacy of oral AZD3342 in the DC injury model in adult Sprague-Dawley rat was also assessed. […]
as §1, with “Spinal cords containing the lesion site were weighed on aluminium foil, dried at 105° C. for 24 hr, and re-weighed.” left out

human MMP-12, sequence (P39900 106-470): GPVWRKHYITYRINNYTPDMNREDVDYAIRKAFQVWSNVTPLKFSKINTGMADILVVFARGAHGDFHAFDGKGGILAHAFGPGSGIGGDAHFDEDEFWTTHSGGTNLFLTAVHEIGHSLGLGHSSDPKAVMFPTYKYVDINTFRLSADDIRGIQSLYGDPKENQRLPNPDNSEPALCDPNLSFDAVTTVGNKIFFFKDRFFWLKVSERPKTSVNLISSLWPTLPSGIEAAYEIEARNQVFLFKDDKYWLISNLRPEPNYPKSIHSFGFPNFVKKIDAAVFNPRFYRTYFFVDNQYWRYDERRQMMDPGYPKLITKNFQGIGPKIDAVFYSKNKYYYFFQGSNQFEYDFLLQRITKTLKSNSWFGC
rat MMP-9, sequence (P50282 108-708): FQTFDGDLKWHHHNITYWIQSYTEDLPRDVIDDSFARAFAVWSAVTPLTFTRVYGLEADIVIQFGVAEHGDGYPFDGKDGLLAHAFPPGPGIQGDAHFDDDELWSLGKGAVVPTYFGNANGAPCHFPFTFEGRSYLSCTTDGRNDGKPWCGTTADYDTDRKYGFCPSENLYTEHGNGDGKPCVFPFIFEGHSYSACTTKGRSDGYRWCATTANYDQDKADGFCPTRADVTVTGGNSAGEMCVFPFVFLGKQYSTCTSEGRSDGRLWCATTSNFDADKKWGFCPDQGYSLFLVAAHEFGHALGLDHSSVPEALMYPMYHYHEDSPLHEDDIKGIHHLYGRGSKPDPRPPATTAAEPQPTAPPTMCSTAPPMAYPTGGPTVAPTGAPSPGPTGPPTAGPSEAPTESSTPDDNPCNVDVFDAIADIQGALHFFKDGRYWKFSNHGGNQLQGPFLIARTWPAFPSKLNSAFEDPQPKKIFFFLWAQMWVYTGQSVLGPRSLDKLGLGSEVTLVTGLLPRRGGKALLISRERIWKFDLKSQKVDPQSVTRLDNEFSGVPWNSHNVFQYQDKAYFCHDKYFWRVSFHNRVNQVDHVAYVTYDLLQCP
human MMP-9, sequence (P14780 94-707): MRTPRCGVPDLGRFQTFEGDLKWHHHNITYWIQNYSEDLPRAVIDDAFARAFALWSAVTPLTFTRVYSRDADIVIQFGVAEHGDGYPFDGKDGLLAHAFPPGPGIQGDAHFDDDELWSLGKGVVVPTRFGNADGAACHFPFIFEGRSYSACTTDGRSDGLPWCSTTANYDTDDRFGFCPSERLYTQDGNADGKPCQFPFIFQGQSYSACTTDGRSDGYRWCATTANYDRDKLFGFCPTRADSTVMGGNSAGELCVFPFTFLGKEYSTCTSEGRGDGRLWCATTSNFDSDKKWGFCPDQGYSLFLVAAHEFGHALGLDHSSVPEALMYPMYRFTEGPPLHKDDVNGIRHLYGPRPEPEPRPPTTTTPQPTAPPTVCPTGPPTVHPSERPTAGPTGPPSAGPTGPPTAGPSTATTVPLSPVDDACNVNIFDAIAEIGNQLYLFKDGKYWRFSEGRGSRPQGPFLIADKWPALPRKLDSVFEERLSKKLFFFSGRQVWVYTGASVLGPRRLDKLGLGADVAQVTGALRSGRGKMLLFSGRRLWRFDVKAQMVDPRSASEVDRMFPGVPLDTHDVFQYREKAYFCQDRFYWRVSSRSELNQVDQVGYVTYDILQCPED
rat MMP-12, sequence (Q63341 102-465): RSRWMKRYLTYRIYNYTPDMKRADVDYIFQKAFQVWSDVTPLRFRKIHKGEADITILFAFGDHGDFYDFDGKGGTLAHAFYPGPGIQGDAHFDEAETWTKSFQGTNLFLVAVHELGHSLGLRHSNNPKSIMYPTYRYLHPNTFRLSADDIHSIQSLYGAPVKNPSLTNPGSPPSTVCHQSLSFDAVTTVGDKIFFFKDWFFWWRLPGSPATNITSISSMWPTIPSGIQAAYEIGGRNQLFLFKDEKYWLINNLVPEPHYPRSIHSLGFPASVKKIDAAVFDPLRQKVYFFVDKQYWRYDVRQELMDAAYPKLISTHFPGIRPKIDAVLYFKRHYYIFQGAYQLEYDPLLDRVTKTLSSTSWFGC

Row | Compound | number of CTB+ DC axons regenerating, comparison with other MMP inhibitors (FIG. 11) [1] | TNF-α, IL-1β and IL-6 production by LPS-activated microglia ([2]; 10-500 ng/ml) | IC50 (human MMP-12) | IC50 (human MMP-9) [nM] | DC injury-induced increase in water content (FIG. 20) (DC injury) | other results
1 | CNC(=O)[C@H](Cc1c[nH]c2ccccc12)NC(=O)[C@@H](CC(=O)NO)CC(C)C [GM6001, (2R)—N^4-Hydroxy-N^1-[(1S)-1-(1H-indol-3-ylmethyl)-2-(methylamino)-2-oxoethyl]-2-(2-methylpropyl)butanediamide, reference compound] | only a marginal effect on axon regeneration | marginal effects | – | – | – | –
2 | C[C@]1(CS(=O)(=O)N2CCC(Oc3ccc(Cl)cn3)CC2)NC(=O)NC1=O [AZD3342, (5S)-5-[4-(5-chloro-pyridin-2-yloxy)-piperidine-1-sulfonylmethyl]-5-methylimidazolidine-2,4-dione] | – | – | 6 nM and 5.9 nM | 10 | completely suppressed | IC50 (rat MMP-9; read-out: IC50 against rat MMP-9): 117 nM; IC50 (rat MMP-12; read-out: IC50 against rat MMP-12): 35 nM; SCI-induced edema (spinal cord water content) [3]: suppressed
3 | COCCN1CCC(C(=O)NO)(S(=O)(=O)c2ccc(Oc3ccc(OC(F)(F)F)cc3)cc2)CC1 [SD2590, N-Hydroxy-1-(2-methoxyethyl)-4-[4-[4-(trifluoromethoxy)phenoxy]phenyl]sulfonyl]-4-piperidinecarboxamide hydrochloride, reference compound] | only a marginal effect on axon regeneration | marginal effects | – | – | – | –
4 | CCN(CC)Cc1cc(C)c(N(Cc2ccccc2)S(=O)(=O)c2ccc(OC)cc2)c(C(=O)NO)c1 [MMP-9 Inhibitor I, reference compound] | only a marginal effect on axon regeneration | marginal effects | – | – | – | –
5 | C[C@]1(CS(=O)(=O)N2CC=C(C#Cc3cnc(C4CC4)nc3)CC2)NC(=O)NC1=O [AZD1236] | far superior at promoting DC axon regeneration | dose-dependent decrease | 6.1 nM | 4.5 | completely suppressed | CTB+ fibres regenerating through the lesion site, 24 h delayed treatment ([1]; 24 h delay vs immediate): promoted the same amount; extension of CTB labelled axons from the lesion centre ([1]; oral): at least 1000 μm; CTB+ labeling intensity (percentage of CTB labelled axons) ([1]; oral, vs DC+Vehicle): significantly enhanced percentage of CTB labelled axons; TNF-α, IL-1β and IL-6 production by LPS-activated microglia ([2]; 100 ng/ml): returning their concentrations to DMEM/F12-medium control levels; TNF-α, IL-1β and IL-6 production by LPS-activated microglia ([2]; 500 ng/ml): completely suppressed the production of these cytokines; activity against rat MMP-9 (rat MMP-9): not active; activity against rat MMP-12 (rat MMP-12): not active
